Laboratory results taken from US9725448B2, “Neprilysin inhibitors” (THERAVANCE BIOPHARMA R&D IP, LLC, priority 2011, dated 2017).

Molecular target: T1, human NEP (Homo sapiens, UniProt P08473)
T1 construct: purchased R&D Systems, Minneapolis, Minn; 1182-ZN
Test: In vitro enzyme inhibition assay at human NEP (fluorogenic peptide substrate)
Format: biochemical
Conditions: pKi values at human NEP (recombinant), given as ranges
Description: The inhibitory activities of compounds at human and rat neprilysin (EC 3.4.24.11; NEP) and human angiotensin converting enzyme (ACE) were determined using in vitro assays as described below.
Recombinant human NEP and recombinant human ACE were obtained commercially (R&D Systems, Minneapolis, Minn., catalog numbers 1182-ZN and 929-ZN, respectively). The fluorogenic peptide substrate Mca-D-Arg-Arg-Leu-Dap-(Dnp)-OH (Medeiros et al. (1997) Braz. J. Med. Biol. Res. 30:1157-62; Anaspec, San Jose, Calif.) and Abz-Phe-Arg-Lys(Dnp)-Pro-OH (Araujo et al. (2000) Biochemistry 39:8519-8525; Bachem, Torrance, Calif.) were used in the NEP and ACE assays respectively.
The assays were performed in 384-well white opaque plates at 37° C. using the fluorogenic peptide substrates at a concentration of 10 μM in Assay Buffer (NEP: 50 mM HEPES, pH 7.5, 100 mM NaCl, 0.01% polyethylene glycol sorbitan monolaurate (Tween-20), […]; ACE: 50 mM HEPES, pH 7.5, 100 mM NaCl, 0.01% Tween-20, 1 μM ZnSO4).
Test compounds were assayed over the range of concentrations from 10 μM to 20 pM. Test compounds were added to the enzymes and incubated for 30 minute at 37° C. prior to initiating the reaction by the addition of substrate. Reactions were terminated after 20 minutes of incubation at 37° C. by the addition of glacial acetic acid to a final concentration of 3.6% (v/v).
Plates were read on a fluorometer with excitation and emission wavelengths set to 320 nm and 405 nm, respectively. Inhibition constants were obtained by nonlinear regression of the data using the equation (GraphPad Software, Inc., San Diego, Calif.): ν=ν0/[1+(I/K′)] where ν is the reaction rate, ν0 is the uninhibited reaction rate, I is the inhibitor concentration and K′ is the apparent inhibition constant.
Compounds of the invention were tested in this assay and found to have pKi values at human NEP as follows.

T1 sequence (P08473 52-750 limits assumed): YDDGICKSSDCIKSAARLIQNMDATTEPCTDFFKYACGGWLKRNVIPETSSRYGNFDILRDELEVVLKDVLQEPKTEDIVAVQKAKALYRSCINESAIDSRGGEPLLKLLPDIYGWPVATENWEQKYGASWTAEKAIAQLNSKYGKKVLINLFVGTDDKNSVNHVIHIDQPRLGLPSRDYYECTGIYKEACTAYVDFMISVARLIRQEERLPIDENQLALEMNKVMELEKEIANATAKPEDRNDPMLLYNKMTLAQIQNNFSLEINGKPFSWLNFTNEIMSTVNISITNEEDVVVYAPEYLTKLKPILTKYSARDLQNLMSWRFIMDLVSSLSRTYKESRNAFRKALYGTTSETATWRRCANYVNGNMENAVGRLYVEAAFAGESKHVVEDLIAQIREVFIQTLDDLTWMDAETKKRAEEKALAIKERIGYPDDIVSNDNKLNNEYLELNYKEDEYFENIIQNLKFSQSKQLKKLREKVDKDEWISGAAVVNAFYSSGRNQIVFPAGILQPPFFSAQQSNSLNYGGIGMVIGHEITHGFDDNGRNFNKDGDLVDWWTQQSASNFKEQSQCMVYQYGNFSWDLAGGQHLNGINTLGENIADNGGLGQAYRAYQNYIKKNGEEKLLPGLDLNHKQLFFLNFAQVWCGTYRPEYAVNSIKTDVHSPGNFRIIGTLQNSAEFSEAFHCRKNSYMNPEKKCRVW

Row | SMILES | Ki [nM]
1 | CC(C)(C[C@@H](Cc1ccc(-c2ccccc2)cc1)NC(=O)c1cc(C(=O)N2CCC[C@H]2C(=O)O)n[nH]1)C(=O)O [Example 9-11, (S)-1-[5-((R)-1-Biphenyl-4-ylmethyl-3-carboxy-3-methyl-butylcarbamoyl)-1H-pyrazole-3-carbonyl]-pyrrolidine-2-carboxylic acid] | 1.26 to 10
2 | CNC(=O)c1cc(C(=O)N[C@H](Cc2ccc(-c3ccccc3)cc2)CC(C)(C)C(=O)O)[nH]n1 [Example 9-12, (R)-5-Biphenyl-4-yl-2,2-dimethyl-4-[(5-methylcarbamoyl-2H-pyrazole-3-carbonyl)-amino]-pentanoic acid] | 12.6 to 100
3 | CN(C)C(=O)c1cc(C(=O)N[C@H](Cc2ccc(-c3ccccc3)cc2)CC(C)(C)C(=O)O)[nH]n1 [Example 9-13, (R)-5-Biphenyl-4-yl-4-[(5-dimethylcarbamoyl-2H-pyrazole-3-carbonyl)-amino]-2,2-dimethyl-pentanoic acid] | 12.6 to 100
4 | CC(C)CN(C)C(=O)c1cc(C(=O)N[C@H](Cc2ccc(-c3ccccc3)cc2)CC(C)(C)C(=O)O)[nH]n1 [Example 9-14, (R)-5-Biphenyl-4-yl-4-{[5-(isobutyl-methyl-carbamoyl)-2H-pyrazole-3-carbonyl]-amino}-2,2-dimethyl-pentanoic acid] | 12.6 to 100
5 | COCCN(C)C(=O)c1cc(C(=O)N[C@H](Cc2ccc(-c3ccccc3)cc2)CC(C)(C)C(=O)O)[nH]n1 [Example 9-15, (R)-5-Biphenyl-4-yl-4-({5-[(2-methoxy-ethyl)-methyl-carbamoyl]-2H-pyrazole-3-carbonyl}-amino)-2,2-dimethyl-pentanoic acid] | 1.26 to 10
6 | CC(C)(C[C@@H](Cc1ccc(-c2ccccc2)cc1)NC(=O)c1cc(C(=O)NCCc2c[nH]cn2)n[nH]1)C(=O)O [Example 9-17, (R)-5-Biphenyl-4-yl-4-({5-[2-(1H-imidazol-4-yl)-ethylcarbamoyl]-2H-pyrazole-3-carbonyl}-amino)-2,2-dimethyl-pentanoic acid] | 12.6 to 100
7 | CC(=O)c1cc(C(=O)N[C@H](Cc2ccc(-c3ccccc3)cc2)CC(C)(C)C(=O)O)[nH]n1 [Example 9-18, (R)-4-[(5-Acetyl-2H-pyrazole-3-carbonyl)-amino]-5-biphenyl-4-yl-2,2-dimethyl-pentanoic acid] | 12.6 to 100
8 | O=C(N[C@H](Cc1ccc(-c2ccccc2)cc1)CC1(C(=O)O)CC1)c1cc(C(=O)O)[nH]n1 [Example 10A, 5-[(R)-2-Biphenyl-4-yl-1-(1-carboxy-cyclopropylmethyl)-ethylcarbamoyl]-2H-pyrazole-3-carboxylic acid] | ≤ 1
9 | O=C(N[C@H](Cc1ccc(-c2ccccc2)cc1)CC1(C(=O)O)CC1)c1cnn[nH]1 [Example 11-1, 1-{(R)-3-Biphenyl-4-yl-2-[(3H-[1,2,3]triazole-4-carbonyl)-amino]-propyl}-cyclopropanecarboxylic acid] | 12.6 to 100
10 | O=C(N[C@H](Cc1ccc(-c2ccccc2)cc1)CC1(C(=O)O)CC1)c1nc(O)n[nH]1 [Example 11-3, 1-{(R)-3-Biphenyl-4-yl-2-[(5-hydroxy-2H-[1,2,4]triazole-3-carbonyl)-amino]-propyl}-cyclopropanecarboxylic acid] | 1.26 to 10
11 | O=C(N[C@H](Cc1ccc(-c2ccccc2)cc1)CC1(C(=O)O)CC1)c1cc(O)no1 [Example 11-5, 1-{(R)-3-Biphenyl-4-yl-2-[(3-hydroxy-isoxazole-5-carbonyl)-amino]-propyl}-cyclopropanecarboxylic acid] | ≤ 1
12 | O=C(N[C@H](Cc1ccc(-c2ccccc2)cc1)CC1(C(=O)O)CC1)c1cnc(O)nc1 [Example 11-8, 1-{(R)-3-Biphenyl-4-yl-2-[(2-hydroxy-pyrimidine-5-carbonyl)-amino]-propyl}-cyclopropanecarboxylic acid] | 1.26 to 10
13 | O=C(N[C@H](Cc1ccc(-c2ccccc2)cc1)CC1(C(=O)O)CC1)c1cc(O)n[nH]1 [Example 11-10, 1-{(R)-3-Biphenyl-4-yl-2-[(5-hydroxy-2H-pyrazole-3-carbonyl)-amino]-propyl}-cyclopropanecarboxylic acid] | 12.6 to 100
